From patent US10335417B2, “Thiazideamide derivative and use thereof” (Institute of Pharmacology and Toxicology Academy of …, priority 2015, dated 2019)

Columns and labels:
in vitro = settings: dog, MDCK-MDR1
From the text: MDCK-MDR1 cells were monolayer cells which highly express P-gp transporter after transfection of MDCK (Madin-Darby canine kidney epithelial cell) with MDR1 gene. Due to its density and high expression of efflux protein, the monolayer has similarity compared to blood-brain barrier (BBB) structure and now can be used as one of models for evaluating the ability of passing through BBB. In the invention, MDCK-MDR1 cells were used to study the membrane permeability of the compounds according to the invention, and to primarily evaluate its ability of passing through BBB.
The frozen MDCK-MDR1 cells were quickly thawed in a 37° C. water bath. To the resuscitated cells, DMEM medium containing 10% FBS was added, and the cells were cultured in an incubator at 37° C., 5% CO2, and a relative humidity of 90%. The medium was changed every other day. After fusion of the cells growing for 1-2 days, the cells were digested with 0.25% trypsin-EDTA (0.2%) mixed digestion solution at 37° C., and were sub-cultured at a certain ratio. The cells for use in experiment were those passaged for 40-60 generations.
When the cell fusion degree reached 80%, the cells were digested and then suspended in complete medium, and seeded to Millicell plate at 1×10^6 cells·mL^−1. The medium was changed every other day, and 1 week later, the medium was changed every day. After culturing for 5 days, the resistance value reached a constant value (>200 Ω·cm^2), and the cells could be used in the transport experiment.
After washing with 37° C. HBSS twice, the cells were incubated in a 37° C. culture incubator, wherein Rho-123 was added to the upper wells, and HBSS was added to the bottom wells. The incubation was carried out in a constant temperature shaker, and the solutions from the bottom wells were collected at each time point (0 min, 30 min, 90 min, 120 min), and stored at −20° C. for further use. The amount of Rho-123 permeated to the bottom well was determined by fluorospectrophotometer, wherein the emission wavelength was […], and the excitation wavelength was 530 nm.
The permeability from cavity-surface to basal surface: drug-containing HBSS 0.35 mL was add to Apical (AP), and blank HBSS 1.2 mL was added to Basolateral (BL). The Millicell was placed at 37° C. in a shaker under shaking at 50 r·min^−1, 50 μL sample was collected from the bottom well at 0, 30, 90, 120 min, respectively, and the same volume of blank HBSS was supplemented. 3 wells were set for each concentration, and to the sample, an internal standard solution (50 μL) and ethyl acetate (350 μL) were added precisely. The mixture was mixed homogeneously under shaking, and centrifuged at 12000 rmp for 5 min. The supernatant (300 μL) was volatilized to dryness, and re-dissolved in 50 μL acetonitrile. The 10 μL resultant solution was used for determination.
The permeability from basal surface to cavity surface: the drug is added to Basolateral (BL), and blank HBSS was added to Apical (AP), and the other steps were the same as those of the experiment for determining the permeability from cavity-surface to basal surface.
The apparent permeability coefficient (Papp) of a drug reflects the ability of the drug to pass through cell monolayer and the drug absorption rate and extent. It can be calculated in accordance with the following equation: […]
wherein, Q represents the amount of drug permeated in the t period, A represents cell surface area, and represents the area (0.6 cm^2) of supporting film in this model, and C0 represents an initial concentration. The unit of Papp is expressed as cm·s^−1.
By measurement using LC/MS, the concentration of each sample was quantitated using its standard curve (50 nM-10000 nM).

[1] = tested on: chick embryo dorsal root ganglion; experiment: in vitro serum-free culture model of chick embryonic dorsal root ganglion: neurite growth score with NGF; format: cell-based; settings: for Average score (growth of neurites of chick embryo dorsal root ganglion): 48 h, score 0-3, average of five ganglions, control 0.33
Protocol: The neurotrophic activity of the compounds according to the invention can be embodied in multiple in vitro biological models, such as in vitro serum-free culture model of chick embryonic dorsal root ganglion.
Experimental method: in a sterile environment, chick embryo, which had been incubated for 8 d, had the spinal and bilateral ganglion exposed under anatomical lens. Dorsal root ganglions were picked one by one using sharp forceps, and seeded in culture bottles spread with rat tail collagen, at a density of 5-6 ganglions per bottle, and two bottles for each dose. After attachment culture in a 37° C., 5% CO2 incubator for 1 h, serum-free medium DMEM containing nerve growth factor (NGF) (0.15 ng/mL), and the compound according to the invention were added. In the control group, only the medium and the same dose of NGF were added. After culture in the incubator for 48 h, the growth of neurite around dorsal root ganglion was observed under inverted phase contrast microscope, which was scored depending on the length and density of neurite.
Evaluation criteria: 0: no neurite; 1: rare long neurite; 2: relatively long or dense neurite; 3: long and dense neurite.

[2] = tested on: BCAO-LBP mice (incomplete global cerebral ischemia); experiment: mouse BCAO-LBP model of incomplete global cerebral ischemia: cerebral MDA content and neurological function score; format: in vivo, Kunmin mice; settings: for Neurologic deficit score / MDA content: 30 mg/kg i.g. once/d for 3 d, x ± SEM; for Neurologic deficit score: behaviour within 6 h after ligation, model group 3.92, sham 0.00; for neurologic deficit score decreased compared to the group administered with Compound 5 / neurologic deficit score decreased compared to the group administered with Compound 6: 30 mg/kg i.g., BCAO-LBP mice; for MDA content: whole cerebrum, model group 40.94, sham 33.15
From the text: In the Example, Kunmin mice were used as experimental subjects, intragastric (i.g.) administration was used, mouse BCAO-LBP (bilateral carotid artery occlusion with low blood pressure) model was used, and by determining neurological function score and the cerebral malondialdehyde (MDA) content in mice, the compounds were investigated for their protective effects on incomplete global cerebral ischemia in mice when administered prophylactically.
2.1.2 Preparation of a drug for intragastric administration: the compound was prepared to a 1.5 mg/ml solution using 0.7% CMC-Na solution.
28 mice, which had adapted to the laboratory environment for 1 week, were evenly grouped depending on body weight. The mice were intragastrically administered with 0.7% CMC-Na or one of the compounds, once/d, for 3 d. The groups were as followed:
Administration group: 12 mice, intragastrically administered at a dose of 0.2 ml/10 g, i.e., the dose of the compound was 30 mg/kg.
2.3.1 Mouse bilateral carotid artery ligation: 1 h after the last administration, the mice were subjected to orbital bloodletting to reduce blood pressure (which was about 30% of the total blood volume of the mice), and then fixed in supine position on the operating table, and cut in the middle of neck. Carotid artery was subjected to blunt dissection, and 2 lines were used in ligation for each side. The time counting started after the ligation with the third line, the carotid artery was cut off between the two lines, and the incision was sewn up. In the Sham-operated group, the carotid artery was only separated without ligation. After the operation, the mice were unfixed quickly, and the mice were observed and recorded for the behaviors within 6 h (scoring depending on the following table using blind method) and the death time. The brains were taken quickly after the mice died, the cerebellums were removed, and the MDA content in the whole cerebrum was determined by thiobarbituric acid (TBA).
The cerebra of mice were taken and weighed, and were prepared into 15% brain homogenate using N.S. 1.2 ml brain homogenate was placed in a 37° C. water bath for 1 h (shaking once every 10 min) and then taken out. 20% trichloroacetic acid 0.6 ml was added, and the mixture was mixed well, and was on standing for 10 min. After centrifugation at 2000 rpm for 10 min, to 1.2 ml supernatant, 0.67% TBA 0.6 ml was added. The mixture was placed in a boiling water bath for 10 min, and was taken out for cooling, and the OD value at a wavelength of 532 nm was determined.
The experimental data was expressed as x±SEM; SPSS 13.0 statistic software was used. Homogeneity or heterogeneity of variance was determined by one-factor analysis of variance. In the case of homogeneity of variance, LSD test was used; in the case of heterogeneity of variance, Dunnett's T3 test was used. Significant difference among different groups was compared, and P<0.05 indicated statistical significance.

[3] = compound 100 pM + NGF 0.15 ng/mL

Q: Which Papp at 120 min (in vitro) does the source give for CCOC(=O)[C@@H](NC(=O)[C@@H]1CSCCN1S(=O)(=O)c1ccc(C)cc1)C(C)C [Compound 13, (S)-ethyl-3-methyl-2((R)-(4-methylphenyl)sulfonyltetrahydro-1,4-thiazin-3-aminoformyl)butyrate] here?
A: Its Papp at 120 min is 18.9 ×10⁻⁶ cm/s.

Q: And the “Average score (growth of neurites of chick embryo dorsal root ganglion)” value (“Average score” for short) ([1]; compound 1 pM + NGF 0.15 ng/mL)?
A: Its value is 1.96.

Q: What about the “Average score” value [1, 3] of the same compound?
A: Its value is 2.88.

Q: What about the Neurologic deficit score [2] of the same compound?
A: Its Neurologic deficit score is 2.47 ± 0.40.

Q: And the “neurologic deficit score decreased compared to the group administered with Compound 5” value [2]?
A: The value was about 32%.

Q: And the MDA content [2]?
A: The MDA content was 33.90 ± 1.45 nmol/g.

Q: For CCOC(=O)[C@H](CCc1ccccc1)NC(=O)[C@@H]1CSCCN1S(=O)(=O)c1ccc(C)cc1 [Compound 22, (S)-ethyl-4-phenyl-2((R)-(4-methylphenyl)sulfonyltetrahydro-1,4-thiazin-3-aminoformyl)butyrate], which Papp at 120 min (in vitro) is on record?
A: Its Papp at 120 min is 40.6 ×10⁻⁶ cm/s.

Q: What about the “Average score” value ([1]; compound 1 pM + NGF 0.15 ng/mL) of the same compound?
A: Its value is 1.88.

Q: And the “Average score” value [1, 3]?
A: The value was 2.78.

Q: And the Neurologic deficit score [2]?
A: The Neurologic deficit score was 3.08 ± 0.40.

Q: What about the “neurologic deficit score decreased compared to the group administered with Compound 5” value [2] of the same compound?
A: The value was “about 15%”.

Q: And the MDA content [2]?
A: Its MDA content is 33.27 ± 1.61 nmol/g.

Q: What does the source list for CCC(C)[C@H](NC(=O)[C@@H]1CSCCN1S(=O)(=O)c1ccc(C)cc1)C(=O)OC (stereo partly drawn) [Compound 8, (2S,3R)-methyl-3-methyl-2((R)-(4-methylphenyl)sulfonyltetrahydro-1,4-thiazin-3-aminoformyl)valerate]?
A: Papp at 120 min (in vitro): 19.2 ×10⁻⁶ cm/s; Average score (growth of neurites of chick embryo dorsal root ganglion) ([1]; compound 1 pM + NGF 0.15 ng/mL): 1.78; Average score (growth of neurites of chick embryo dorsal root ganglion) [1, 3]: 2.45; Neurologic deficit score [2]: 1.77 ± 0.28; neurologic deficit score decreased compared to the group administered with Compound 6 [2]: about 15%; MDA content [2]: 34.95 ± 1.55 nmol/g

Q: For Cc1ccc(S(=O)(=O)N2CCSC[C@H]2C(=O)N[C@@H](Cc2ccccc2)C(=O)OCc2ccccc2)cc1 [Compound 18, (S)-benzyl-3-phenyl-2((R)-(4-methylphenyl)sulfonyltetrahydro-1,4-thiazin-3-aminoformyl)propionate], which Papp at 120 min (in vitro) is on record?
A: Its Papp at 120 min is 28.5 ×10⁻⁶ cm/s.

Q: What about the “Average score” value ([1]; compound 1 pM + NGF 0.15 ng/mL) of the same compound?
A: Its value is 1.66.

Q: And the “Average score” value [1, 3]?
A: Its value is 2.68.

Q: What about the Neurologic deficit score [2] of the same compound?
A: Its Neurologic deficit score is 2.65 ± 0.31.

Q: What about the “neurologic deficit score decreased compared to the group administered with Compound 5” value [2] of the same compound?
A: The value was about 27%.

Q: What about the MDA content [2] of the same compound?
A: Its MDA content is 32.66 ± 0.93 nmol/g.

Q: Which results are given for Cc1ccc(S(=O)(=O)N2CCSC[C@H]2C(=O)N[C@H](Cc2ccccc2)C(=O)OC(C)(C)C)cc1 [Compound 20, (R)-tert-butyl-3-phenyl-2((R)-(4-methylphenyl)sulfonyltetrahydro-1,4-thiazin-3-aminoformyl)propionate]?
A: Papp at 120 min (in vitro): 18.8 ×10⁻⁶ cm/s; Average score (growth of neurites of chick embryo dorsal root ganglion) ([1]; compound 1 pM + NGF 0.15 ng/mL): 2.10; Average score (growth of neurites of chick embryo dorsal root ganglion) [1, 3]: 3.32; neurotrophic activity increased compared to Compound 6 ([1]; dose 1 pM): 25%; neurotrophic activity increased compared to Compound 6 ([1]; dose 100 pM): 30%; Neurologic deficit score [2]: 3.76 ± 0.31; MDA content [2]: 34.90 ± 1.65 nmol/g

Q: For CCC(C)[C@H](NC(=O)[C@@H]1CSCCN1S(=O)(=O)c1ccc(C)cc1)C(=O)OC(C)(C)C (stereo partly drawn) [Compound 9, (2S,3R)-tert-butyl-3-methyl-2((R)-(4-methylphenyl)sulfonyltetrahydro-1,4-thiazin-3-aminoformyl)valerate], which Papp at 120 min (in vitro) is on record?
A: The Papp at 120 min was 12.4 ×10⁻⁶ cm/s.

Q: What about the “Average score” value ([1]; compound 1 pM + NGF 0.15 ng/mL) of the same compound?
A: Its value is 1.76.

Q: What about the “Average score” value [1, 3] of the same compound?
A: The value was 2.56.

Q: What about the Neurologic deficit score [2] of the same compound?
A: Its Neurologic deficit score is 2.37 ± 0.31.

Q: What about the “neurologic deficit score decreased compared to the group administered with Compound 5” value [2] of the same compound?
A: Its value is “about 35%”.

Q: What about the MDA content [2] of the same compound?
A: The MDA content was 33.29 ± 1.81 nmol/g.

Q: For Cc1ccc(S(=O)(=O)N2CCSC[C@H]2C(=O)N[C@@H](C(=O)OC(C)(C)C)C(C)C)cc1 [Compound 15, (R)-tert-butyl-3-methyl-2((R)-(4-methylphenyl)sulfonyltetrahydro-1,4-thiazin-3-aminoformyl)butyrate], which Papp at 120 min (in vitro) is on record?
A: Its Papp at 120 min is 40.8 ×10⁻⁶ cm/s.

Q: And the “Average score” value ([1]; compound 1 pM + NGF 0.15 ng/mL)?
A: The value was 1.78.

Q: And the “Average score” value [1, 3]?
A: Its value is 2.68.

Q: And the Neurologic deficit score [2]?
A: Its Neurologic deficit score is 1.91 ± 0.28.

Q: And the “neurologic deficit score decreased compared to the group administered with Compound 6” value [2]?
A: Its value is about 8%.

Q: And the MDA content [2]?
A: Its MDA content is 33.77 ± 1.61 nmol/g.
